Data: patent US7851637B2, “Compounds and methods for inhibiting the interaction of BCL proteins with binding partners” (Infinity Pharmaceuticals, Inc., priority 2004, dated 2010)

How the values were obtained:
[1] = biological target: Bcl-xL (Homo sapiens, UniProt Q07817); experiment: Bcl-xL binding affinity analysis (fluorescence polarization binding assay); parameters: scale not given here
Outline: (§1)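 FP readout; quantitative in vitro binding format; same method applied to both anti-apoptotic proteins.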

[2] = biological target: Bcl-2 (Homo sapiens, UniProt P10415); experiment: Bcl-2 binding affinity analysis (fluorescence polarization binding assay)
Chain of Bcl-2 (P10415 whole entry): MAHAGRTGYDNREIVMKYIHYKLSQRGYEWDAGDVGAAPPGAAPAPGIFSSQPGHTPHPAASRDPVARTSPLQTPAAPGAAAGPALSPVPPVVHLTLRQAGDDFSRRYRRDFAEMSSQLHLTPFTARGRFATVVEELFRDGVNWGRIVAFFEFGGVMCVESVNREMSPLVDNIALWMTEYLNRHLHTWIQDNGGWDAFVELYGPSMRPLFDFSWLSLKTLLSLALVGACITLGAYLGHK
Outline: as §1

Chain of Bcl-xL (Q07817 whole entry): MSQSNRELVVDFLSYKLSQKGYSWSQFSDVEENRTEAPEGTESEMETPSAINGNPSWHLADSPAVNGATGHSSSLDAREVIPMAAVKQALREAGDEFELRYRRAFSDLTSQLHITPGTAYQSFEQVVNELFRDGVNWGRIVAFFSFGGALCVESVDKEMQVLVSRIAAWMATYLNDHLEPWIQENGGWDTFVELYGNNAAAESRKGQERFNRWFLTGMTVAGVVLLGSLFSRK

Compound	Bcl-XL binding affinity Ki [1]	Ki [2]
C[C@H](O)[C@@H]1[C@H](CO)ON(Cc2cccc(N3CCN(C(=O)OCc4ccccc4)CC3)c2)[C@@H]1C(=O)NC1C[C@H]2C[C@@H]([C@@H]1C)C2(C)C (stereo partly shown) [Compound 253]	♯	< 800 nM
COc1ccc(C(O)C#Cc2cccc(CN3O[C@H](CO)[C@H]([C@@H](C)O)[C@@H]3C(=O)NCCCN(C)c3ccccc3)c2)c(C)c1 (stereo partly shown) [Compound 247]	♯	< 800 nM
CC(C)C[C@@H](CN(C)C)N(Cc1ccccc1)Cc1cccc(CN2O[C@@H](CO)[C@@H]([C@H](C)O)[C@H]2C(=O)NCc2ccccc2)c1 [Compound 542]	♯	800 to 6000 nM
CC(O)C1[C@H](CO)ON(Cc2cccc(C#Cc3ccccn3)c2)[C@@H]1C(=O)N[C@H]1C[C@H]2CC([C@@H]1C)C2(C)C (stereo partly shown) [Compound 32]	♯	800 to 6000 nM
C[C@@H](O)[C@H]1[C@@H](CO)ON(Cc2cccc(C#CCNC(=O)c3ccccc3)c2)[C@H]1C(=O)NCc1ccc(-c2ccccc2)cc1 [Compound 60]	♯♯	> 50000 nM
CC(O)C1C(CO)ON(Cc2cccc(CN3CC(c4ccccc4)CC3CN(C)C)c2)C1C(=O)NC1CC2CC(C1C)C2(C)C (stereo not shown) [Compound 457]	♯	< 800 nM
C[C@H](O)[C@@H]1[C@H](CO)ON(Cc2cccc(CN(CCN(C)C)CC3CCCCC3)c2)[C@@H]1C(=O)NC1C[C@H]2C[C@@H]([C@@H]1C)C2(C)C (stereo partly shown) [Compound 190]	♯	< 800 nM
C[C@@H](O)[C@H]1[C@@H](CO)ON(Cc2cccc(C#CCN(C)Cc3ccccc3)c2)[C@H]1C(=O)NCCCN(C)c1ccccc1 [Compound 51]	♯	800 to 6000 nM
C[C@@H]1[C@@H](NC(=O)[C@@H]2[C@H]([C@H](C)O)[C@H](CO)ON2Cc2cccc(-c3ccc(C(=O)N(C)C)cc3)c2)C[C@H]2C[C@@H]1C2(C)C [Compound 118]	♯	< 800 nM
C[C@H](O)[C@@H]1[C@H](CO)ON(Cc2cccc(CN(CCN(C)C)Cc3ccccc3)c2)[C@@H]1C(=O)N[C@H]1CCN(Cc2ccccc2)C1 [Compound 518]	♯	6000 to 50000 nM
C[C@@H]1[C@@H](NC(=O)[C@@H]2[C@H]([C@H](C)O)[C@H](CO)ON2Cc2cccc(-c3cccc([S+](C)[O-])c3)c2)C[C@H]2C[C@@H]1C2(C)C (stereo partly shown) [Compound 202]	♯	< 800 nM
CCNC(=O)c1cccc(-c2cccc(CN3O[C@@H](CO)[C@@H]([C@H](C)O)[C@H]3C(=O)N[C@H]3C[C@H]4C[C@@H]([C@@H]3C)C4(C)C)c2)c1 [Compound 122]	♯♯	< 800 nM
C[C@@H]1[C@@H](NC(=O)[C@@H]2C([C@H](C)O)[C@H](CO)ON2Cc2cccc(CN(CCN(C)C)Cc3ccccc3-c3ccccc3F)c2)C[C@H]2C[C@@H]1C2(C)C (stereo partly shown) [Compound 343]	♯	< 800 nM
CC(C)C[C@@H](CN(C)C)N(Cc1ccccc1)Cc1cccc(CN2O[C@@H](CO)[C@@H]([C@H](C)O)[C@H]2C(=O)NC(C)C)c1 [Compound 539]	♯	6000 to 50000 nM
Cc1cccc(CN(Cc2cccc(CN3OC(CO)C(C(C)O)C3C(=O)NC3CC4CC(C3C)C4(C)C)c2)C(CC(C)C)CN(C)C)c1O (stereo not shown) [Compound 337]	♯	< 800 nM
CC(O)C1C(CO)ON(Cc2cccc(CN(CCN(C)C)CC3CCCOC3)c2)C1C(=O)NC1CC2CC(C1C)C2(C)C (stereo not shown) [Compound 382]	♯	< 800 nM
C[C@H](O)[C@@H]1[C@H](CO)ON(Cc2cccc(C#C[C@@H](O)c3ccccc3)c2)[C@@H]1C(=O)N[C@H]1C[C@H]2CC([C@@H]1C)C2(C)C [Compound 52]	♯	800 to 6000 nM
C[C@@H](O)[C@H]1[C@@H](CO)ON(Cc2cccc(C#CC(O)c3ccc(-n4ccnc4)cc3)c2)[C@H]1C(=O)NCCCN(C)c1ccccc1 (stereo partly shown) [Compound 42]	♯♯	800 to 6000 nM
C[C@@H]1[C@@H](NC(=O)[C@@H]2[C@H]([C@H](C)O)[C@H](CO)ON2CCCCN(CCN(C)C)CC2CCCCC2)C[C@H]2C[C@@H]1C2(C)C [Compound 553]	♯	800 to 6000 nM
CC(C)CCN(CCN(C)C)Cc1cccc(CN2O[C@@H](CO)[C@@H]([C@H](C)O)[C@H]2C(=O)N[C@H]2C[C@H]3C[C@@H]([C@@H]2C)C3(C)C)c1 [Compound 207]	♯	< 800 nM
COCCNC(=O)c1cccc(-c2cccc(CN3O[C@@H](CO)[C@@H]([C@H](C)O)[C@H]3C(=O)N[C@H]3C[C@H]4C[C@@H]([C@@H]3C)C4(C)C)c2)c1 [Compound 153]	♯	< 800 nM
CC(O)C1C(CO)ON(Cc2cccc(CNC(CCc3ccccc3)CN(C)C)c2)C1C(=O)NC1CC2CC(C1C)C2(C)C (stereo not shown) [Compound 445]	♯	< 800 nM
CC(C)CC(CN(C)C)N(Cc1cccc(CN2OC(CO)C(C(C)O)C2C(=O)NC2CC3CC(C2C)C3(C)C)c1)Cc1cccc(C(C)(C)C)c1O (stereo not shown) [Compound 338]	♯	< 800 nM

Other lines, results leading:

Bcl-XL binding affinity Ki [1]	Ki [2]	Compound
♯	6000 to 50000 nM	CC(C)C[C@@H](CN(C)C)N(Cc1ccccc1)Cc1cccc(CN2O[C@@H](CO)[C@@H]([C@H](C)O)[C@H]2C(=O)NCCCn2ccnc2)c1 [Compound 529]
♯	< 800 nM	CC(O)C1C(CO)ON(Cc2cccc(CN(CCN(C)C)Cc3ccccc3-c3cccc(F)c3)c2)C1C(=O)NC1CC2CC(C1C)C2(C)C (stereo not shown) [Compound 342]
♯	6000 to 50000 nM	C[C@H](O)[C@@H]1[C@H](CO)ON(Cc2cccc(CN(CCN(C)C)Cc3ccccc3)c2)[C@@H]1C(=O)NC1CCN(Cc2ccccc2)CC1 [Compound 527]
♯♯	< 800 nM	CC(=O)Nc1cccc(-c2cccc(CN3O[C@@H](CO)[C@@H]([C@H](C)O)[C@H]3C(=O)NC3C[C@H]4C[C@@H]([C@@H]3C)C4(C)C)c2)c1 (stereo partly shown) [Compound 183]
♯	800 to 6000 nM	C[C@@H](O)[C@H]1[C@@H](CO)ON(Cc2cccc(C#C[C@@H](O)c3ccccc3)c2)[C@H]1C(=O)NCCCN(C)c1ccccc1 [Compound 48]
♯	< 800 nM	CC(O)C1C(CO)ON(Cc2cccc(CN(C)CC(=O)N(C)C)c2)C1C(=O)NC1CC2CC(C1C)C2(C)C (stereo not shown) [Compound 446]
♯♯	800 to 6000 nM	C[C@@H](O)[C@H]1[C@@H](CO)ON(Cc2cccc(C#CC(O)c3ccccc3Cl)c2)[C@H]1C(=O)NCCCN(C)c1ccccc1 (stereo partly shown) [Compound 33]
♯	< 800 nM	C[C@@H]1[C@@H](NC(=O)[C@@H]2C([C@H](C)O)[C@H](CO)ON2Cc2cccc(CN(CCN(C)C)C(c3ccccc3)c3ccccc3)c2)C[C@H]2C[C@@H]1C2(C)C (stereo partly shown) [Compound 441]
♯	< 800 nM	C[C@@H]1[C@@H](NC(=O)[C@@H]2[C@H]([C@H](C)O)[C@H](CO)ON2Cc2cccc(CN(CCN(C)C)CC(C)(C)C)c2)C[C@H]2C[C@@H]1C2(C)C [Compound 213]
♯	> 50000 nM	CCCCC[C@H](O)C#Cc1cccc(CN2O[C@@H](CO)[C@@H]([C@H](C)O)[C@H]2C(=O)NCCC(C)C)c1 [Compound 41]
♯	< 800 nM	C[C@@H]1[C@@H](NC(=O)[C@@H]2[C@H]([C@H](C)O)[C@H](CO)ON2Cc2cccc(N3CCN(S(C)(=O)=O)CC3)c2)C[C@H]2C[C@@H]1C2(C)C [Compound 293]
♯	< 800 nM	CCN(CC)C(=O)c1ccc(-c2cccc(CN3O[C@@H](CO)[C@@H]([C@H](C)O)[C@H]3C(=O)N[C@H]3C[C@H]4C[C@@H]([C@@H]3C)C4(C)C)c2)cc1 [Compound 108]
♯	6000 to 50000 nM	CC(C)CNC(=O)[C@@H]1[C@H]([C@H](C)O)[C@H](CO)ON1Cc1cccc(CN(Cc2ccccc2)[C@@H](CC(C)C)CN(C)C)c1 [Compound 540]
♯	< 800 nM	CC(O)C1C(CO)ON(Cc2cccc(C(=O)NC(CCc3ccccc3)CN(C)C)c2)C1C(=O)NC1CC2CC(C1C)C2(C)C (stereo not shown) [Compound 511]
♯♯	< 800 nM	C[C@@H]1[C@@H](NC(=O)[C@@H]2[C@H]([C@H](C)O)[C@H](CO)ON2Cc2cccc(-c3cccc(C(=O)NCCN4CCOCC4)c3)c2)C[C@H]2C[C@@H]1C2(C)C [Compound 132]
♯	800 to 6000 nM	C[C@@H]1[C@@H](NC(=O)[C@@H]2[C@H]([C@H](C)O)[C@H](CO)ON2CCCCN(CCN(C)C)Cc2ccccc2)C[C@H]2C[C@@H]1C2(C)C [Compound 547]
♯	< 800 nM	COc1ccc(OC)c(CN(Cc2cccc(CN3OC(CO)C(C(C)O)C3C(=O)NC3CC4CC(C3C)C4(C)C)c2)C(CC(C)C)CN(C)C)c1 (stereo not shown) [Compound 333]
♯	< 800 nM	C[C@H](O)[C@@H]1[C@H](CO)ON(Cc2cccc(CN(CCN(C)C)Cc3ccccc3)c2)[C@@H]1C(=O)NCc1ccc(-c2ccccc2)cc1 [Compound 526]
♯	< 800 nM	CCN1CCC[C@@H]1CNC(=O)c1cccc(-c2cccc(CN3O[C@@H](CO)[C@@H]([C@H](C)O)[C@H]3C(=O)N[C@H]3C[C@H]4C[C@@H]([C@@H]3C)C4(C)C)c2)c1 [Compound 106]
♯	800 to 6000 nM	C[C@@H]1[C@@H](NC(=O)[C@@H]2C([C@H](C)O)[C@H](CO)ON2Cc2cccc(CN(Cc3ccccc3)C[C@@H]3CCCN3C(=O)OCc3ccccc3)c2)C[C@H]2C[C@@H]1C2(C)C (stereo partly shown) [Compound 439]
♯♯	< 800 nM	Cc1cc(-c2cccc(CN3O[C@@H](CO)[C@@H]([C@H](C)O)[C@H]3C(=O)N[C@H]3C[C@H]4C[C@@H]([C@@H]3C)C4(C)C)c2)ccc1C(=O)N(C)C [Compound 150]
